Measurements taken from US20040236269A1, “Microsurgical tissue treatment system” (priority 2002, published 2004).

Experiment: Delivery of a topical anesthetic through micro-ablated stratum corneum; sensation probed with 20 gauge needle or by pinching
Assay type: in vivo
Conditions: solution of 4% lidocaine applied for five minutes to approx. 1 cm^2 area ablated by piezoelectric actuator with 60 micron aluminum oxide particles, 10-15 pulses, 20 kHz; probed with 20 gauge needle or pinching
Description: A piezoelectric actuator was fitted with 60 micron aluminum oxide particles fixed to its surface so as to provide an approximate 1 cm^2 treatment area. Ten to fifteen pulses of less than one second duration were applied with force of less than 1 pound to the area and frequency of 20 kHz. […] A solution of 4% lidocaine was applied to the area and incubated for five minutes. The excess lidocaine was wiped off, and a series of probes was made in and around the area of treatment using a 20 gauge needle or by pinching.

CCN(CC)CC(=O)Nc1c(C)cccc1C [lidocaine]
anesthesia (lack of sensation within and in close proximity to the treatment site): significant anesthesia was obtained
